Substitutions are numbered along the chain they refer to. Names and notes keep the numbering of the source. “Also recorded” adds a separate entry of the source. Positions of bridges follow the written chain, without caps; N, C: chain ends. Non-standard residues stand in square brackets, D forms with d. Residues, ends and D or L forms follow the SMILES beside them. No end group written: not given here. *: point of attachment. 5FAM = O=C1OC2(c3ccc(O)cc3Oc3cc(O)ccc32)c2ccc(C(=O)*)cc21; S5 = C=CCCC[C@](C)(N)C(=O)O; PEG2 = NCCOCCOCCC(=O)O

One assay concerns the target T1, Rac1·GMPPNP (Homo sapiens, UniProt P63000, Q61L).
T1 construct: Rac1 (pGEX-2T, 1–185, Q61L); GST (cleaved yes); made in house
Briefly: Direct-binding fluorescence polarization, Rac1. The conditions noted are these: 20 nM FAM-labeled peptide, n = 3, NB = no binding, GTPase up to 100 μM; for Kd: read-out: Kd Rac1·GMPPNP, FP. Here is the method:
(§1) FP experiments were performed on a BMG Labtech Pherastar fluorimeter at 298 K with excitation at 485 nm and emission at 520 nm as described previously ([34]), using 20 nM FAM-labeled peptide. Plates were read after 30 min incubation at room temperature. Data were fitted to a single-site binding model using nonlinear regression analysis in GraphPad prism 8.4 to obtain Kd values and their standard errors.
(In general: Polarisation of emitted light reports the rotation of a fluorescent probe.)

The next assay addresses T2, RhoA·GMPPNP (Homo sapiens, UniProt P61586, F25N/Q63L).
T2 construct: RhoA (pGEX-2T, 1–186, F25N/Q63L); GST (cleaved yes); made in house
The assay can be described thus: Direct-binding fluorescence polarization, RhoA. The following applies: 20 nM FAM-labeled peptide, n = 3, NB = no binding, GTPase up to 100 μM; for Kd: read-out: Kd RhoA·GMPPNP, FP. The protocol:
as §1

The target in a further assay is T3, RalA·GDP (Homo sapiens, UniProt P11233, Q72L).
T3 construct: RalA (pMAT10, residues 1–184, Q72L); His6-MBP (cleaved yes); made in house
T3 sequence (P11233 1-184 Q72L): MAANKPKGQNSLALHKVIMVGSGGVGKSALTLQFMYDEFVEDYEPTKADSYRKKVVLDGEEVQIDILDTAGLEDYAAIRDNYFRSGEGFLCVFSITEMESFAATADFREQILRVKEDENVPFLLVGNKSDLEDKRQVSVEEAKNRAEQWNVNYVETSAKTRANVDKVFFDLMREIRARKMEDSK
Briefly: Direct-binding fluorescence polarization, RalA·GDP. The conditions noted are these: 20 nM FAM-labeled peptide, n = 3, NB = no binding; for Kd: read-out: Kd RalA·GDP, FP. The protocol: as §1

For the next assay, the target named is RalA. The assay can be described thus: Direct-binding SPA of RalA to His-tagged RLIP76 RBD variants. The following applies: 80 nM His-tagged RBD, n = 2; for apparent Kd RalA, direct SPA (Fig. S1): [3H]GTP-labelled RalA titrated, experiment of Fig. S1.
For assay [1], the target named is T4, RalA (residues 1–184, Q72L) (UniProt P11233 1-184, Q72L).
T4 construct: RalA small GTPase, residues 1-184, constitutively active Q72L; Loaded with [3H]GTP for SPA, with GMPPNP or GDP for fluorescence polarisation; also called RalA·GTP; [3H]-GTP RalA; source: expressed from pMAT10 as His6-MBP fusion, cleaved from its tag as described previously
T4 sequence (looked up): T3 sequence (P11233 1-184 Q72L)
Briefly: scintillation proximity assay (competition); His-tagged wild-type RLIP76 RBD immobilised on SPA beads, fixed [3H]GTP·RalA (100 nM) or [3H]GTP·RalB (250 nM), competitor RBD or peptide titrated; pure competition model, apparent Kd (Ki). The following applies: both partners purified.

In assay [2] the target is T5, RalB (residues 1–185, Q72L) (UniProt P11234 1-185, Q72L).
T5 construct: Loaded with [3H]GTP for SPA, with GMPPNP for ITC, FP and crystallisation; also called RalB·GTP; source: expressed from pMAT10 as His6-MBP fusion, cleaved from its tag as described previously
T5 sequence (looked up): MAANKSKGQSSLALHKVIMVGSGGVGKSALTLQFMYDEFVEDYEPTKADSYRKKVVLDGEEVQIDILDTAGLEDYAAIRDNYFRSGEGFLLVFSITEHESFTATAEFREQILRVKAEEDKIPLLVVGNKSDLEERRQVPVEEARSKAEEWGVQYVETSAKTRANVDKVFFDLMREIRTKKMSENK
Described as above. The conditions noted are these: both partners purified.

The target of assay [3] is T4, RalA (residues 1–184, Q72L). The assay is described as above. The following applies: both partners purified. This is another data set of the same source.
Assay [4] concerns the target T6, RalB (residues 1-185, Q72L) (UniProt P11234 1-185, Q72L).
T6 construct: source: expressed from pMAT10 as His6-MBP fusion, prepared and cleaved from its tags as described previously
T6 sequence (looked up): T5 sequence (looked up)
The assay can be described thus: fluorescence polarisation; direct binding of 20 nM FAM-labelled peptide to varying concentrations of small GTPase; 298 K; read after 30 min at room temperature; single-site binding model; n >= 2. The following applies: both partners purified.

The target of assay [5] is T7, RalA (residues 1-184, Q72L) (UniProt P11233 1-184, Q72L).
T7 construct: RalA small GTPase, residues 1-184, constitutively active Q72L; Loaded with [3H]GTP for the SPAs; also called [3H]GTP-labelled RalA; source: expressed from pMAT10 as His6-MBP fusion, prepared and cleaved from its tags as described previously
T7 sequence (looked up): T3 sequence (P11233 1-184 Q72L)
The description is as above. The conditions noted are these: both partners purified.

T2 sequence (P61586 1-186 F25N/Q63L): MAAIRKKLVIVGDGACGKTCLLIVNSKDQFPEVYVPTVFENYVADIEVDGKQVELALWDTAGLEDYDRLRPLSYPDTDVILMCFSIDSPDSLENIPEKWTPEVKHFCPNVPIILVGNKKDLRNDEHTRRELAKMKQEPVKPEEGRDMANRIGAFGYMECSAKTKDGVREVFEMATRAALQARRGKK

Take `CC[C@H](C)[C@H](NC(=O)[C@H](CCCNC(=N)N)NC(=O)[C@H](CC(C)C)NC(=O)[C@H](CCC(=O)O)NC(=O)[C@H](CCC(=O)O)NC(=O)[C@H](Cc1c[nH]c2ccccc12)NC(=O)[C@H](CC(C)C)NC(=O)[C@]1(C)CCCC=CCCC[C@](C)(NC(=O)[C@H](CC(C)C)NC(=O)CCOCCOCCNC(=O)c2ccc3c(c2)C(=O)OC32c3ccc(O)cc3Oc3cc(O)ccc32)C(=O)N[C@@H](CCCCN)C(=O)N[C@@H](CCC(=O)O)C(=O)N[C@@H](Cc2c[nH]cn2)C(=O)N1)C(=O)N[C@@H](CCCCN)C(=O)N[C@H](C(=O)N[C@@H](C)C(=O)N[C@@H](CCC(=O)O)C(=O)N[C@@H](CCCNC(=N)N)C(=O)N[C@@H](CCCNC(=N)N)C(=O)N[C@@H](CCCCN)C(=O)N[C@@H](CCCCN)C(=O)N[C@@H](CCCNC(=N)N)C(=O)N[C@@H](CCC(=O)O)C(=O)N[C@@H](C)C(N)=O)[C@@H](C)O` [HLR-sol] ({5FAM-PEG2}-L[S5]KEH[S5]LWEELRIKTAERRKKREA-NH2; staple 2-6): on Rac1·GMPPNP, the “Kd Rac1·GMPPNP, FP” value is “binding was too weak” and the Kd is more than 100 µM. Moreover, at RhoA·GMPPNP, the “Kd RhoA·GMPPNP, FP” value is recorded as “binding was too weak” and the Kd is more than 100 µM. In addition, at RalA·GDP, the “Kd RalA·GDP, FP” value is “binding was too weak” and the Kd is more than 100 µM.
`CC[C@H](C)[C@H](NC(=O)[C@H](CCCNC(=N)N)NC(=O)[C@H](CC(C)C)NC(=O)[C@H](CCC(=O)O)NC(=O)[C@H](CCC(=O)O)NC(=O)[C@H](Cc1c[nH]c2ccccc12)NC(=O)[C@H](CC(C)C)NC(=O)[C@]1(C)CCCC=CCCC[C@](C)(NC(=O)[C@H](CC(C)C)NC(=O)CCOCCOCCNC(=O)c2ccc3c(c2)C(=O)OC32c3ccc(O)cc3Oc3cc(O)ccc32)C(=O)N[C@@H](CCCCN)C(=O)N[C@@H](CCC(=O)O)C(=O)N[C@@H](CCC(=O)O)C(=O)N1)C(=O)N[C@@H](CCCCN)C(=O)N[C@H](C(=O)N[C@@H](C)C(=O)N[C@@H](CCC(=O)O)C(=O)N[C@@H](CCCCN)C(=O)N[C@@H](CCCNC(=N)N)C(=O)N[C@@H](CCCCN)C(=O)N[C@@H](CCCCN)C(=O)N[C@@H](CCCNC(=N)N)C(=O)N[C@@H](CCC(=O)O)C(=O)N[C@@H](C)C(N)=O)[C@@H](C)O` [L-sol] ({5FAM-PEG2}-L[S5]KEE[S5]LWEELRIKTAEKRKKREA-NH2; staple 2-6): on Rac1·GMPPNP, the “Kd Rac1·GMPPNP, FP” value is reported as “binding was too weak” and the Kd was more than 100 µM. Moreover, on RhoA·GMPPNP, the “Kd RhoA·GMPPNP, FP” value is “binding was too weak” and the Kd is more than 100 µM. On RalA·GDP, the “Kd RalA·GDP, FP” value is recorded as “binding was too weak” and the Kd was more than 100 µM.
Consider “ETQAGIKEEIRRQEFLLNSLHRDLQGGIKDLSKWDRAWEVSQILSALRRKLREA [WDASQSR]”, for which the “apparent Kd RalA, direct SPA (Fig. S2)” value at RalA ([3H]GTP-labeled RalA titrated, experiment of Fig. S2) is “no fit could be obtained as binding was too weak; also recorded: did not bind”.
Regarding “LTTLR mutant: His-tagged RLIP76 RBD consensus sequence lacking the K440P substitution (ETQAGIKEEIRRQEFLLNSLHRDLQGGIKDLSKLTRLWEVTLILRALKRKLREA; also: His-tagged, tag position not given here)”, the results for the “apparent Kd RalA, direct SPA (Fig. S1)” value at RalA and on RalA (listed as E426L/E427T/Q433T/R434L/T437R) were “no fit could be obtained as binding was too weak” and “did not bind”, respectively.

B1: RLIP76 RBD WNASELR mutant (domain or fragment)
chain: ETQAGIKEEIRRQEFLLNSLHRDLQGGIKDLSKWNRAWEVSEILLALRRKLREA
notes: RLIP76 residues 423-446 (helix α2); Selected by CIS display; source: E. coli, recombinant; cleaved from its tag
As for B1, the Kd in assay [1] came to 2.75 µM; in [2], 10.3 µM.

B2: RLIP76 RBD WDASTAY mutant (domain or fragment)
chain: B1 chain with N35D, E42T, L45A, R48Y
notes: as for B1
Turning to B2, the Kd in assay [1] is 0.53 µM; in [2], 1.2 µM.

B3: wt-sol stapled peptide (peptide)
chain: L[S5]KEE[S5]LWEEQRIKTAEKRKKREA-NH2
modifications: staple 2-6; N-terminus assumed
SMILES: CC[C@H](C)[C@H](NC(=O)[C@H](CCCNC(=N)N)NC(=O)[C@H](CCC(N)=O)NC(=O)[C@H](CCC(=O)O)NC(=O)[C@H](CCC(=O)O)NC(=O)[C@H](Cc1c[nH]c2ccccc12)NC(=O)[C@H](CC(C)C)NC(=O)[C@]1(C)CCCC=CCCC[C@](C)(NC(=O)[C@@H](N)CC(C)C)C(=O)N[C@@H](CCCCN)C(=O)N[C@@H](CCC(=O)O)C(=O)N[C@@H](CCC(=O)O)C(=O)N1)C(=O)N[C@@H](CCCCN)C(=O)N[C@H](C(=O)N[C@@H](C)C(=O)N[C@@H](CCC(=O)O)C(=O)N[C@@H](CCCCN)C(=O)N[C@@H](CCCNC(=N)N)C(=O)N[C@@H](CCCCN)C(=O)N[C@@H](CCCCN)C(=O)N[C@@H](CCCNC(=N)N)C(=O)N[C@@H](CCC(=O)O)C(=O)N[C@@H](C)C(N)=O)[C@@H](C)O
Take B3: in assay [3], the Kd was found to be 48.6 µM.

B4: SP1, FAM-labelled stapled peptide of the RLIP76 RBD α2 helix (residues 423-446, staple bridging residues 424 to 428) (peptide)
chain: 5FAM-L[S5]KEE[S5]LWEVQRILTALKRKLREA
modifications: staple 2-6
In the case of B4, the Kd in assay [4] worked out at 4.7 µM; in assay [5] it was 17.2 µM.

B5: HLR-SP1, FAM-labelled stapled peptide of the RLIP76 RBD α2 helix (residues 423-446) with the HLR substitutions (E427H/Q433L/K440R) (peptide)
chain: 5FAM-L[S5]KEH[S5]LWEVLRILTALRRKLREA
modifications: staple 2-6
As to B5, the Kd in assay [4] is 0.159 µM; in [5] it was 4.68 µM.

(Values after publication PMC7949049 (The Journal of Biological Chemistry, 2020).)
